The assay deals with MRSA (ATCC No. BAA-44). In words: Potentiation of antibiotic activity with 10 μM compound 1 (CFU/mL). The class given is cell-based, S. aureus. Here is the method:
The MICs for the antibiotics in the absence of compound 1 were calculated by adjusting the cells to 5×10^5 CFU/mL with McFarland Turbidity Standard (0.5) followed by the addition of an antibiotic. The cells were then incubated at 37° C. for 18 hours on a rotary shaking incubator at 100 rpm. Finally, MTT was added to the cells to assess viability.
To assess the potentiation of antibiotic activity, the cells were adjusted to 5×10^5 CFU/mL with McFarland Turbidity Standard (0.5). Compound 1 was then added at 10 μM, and the cells were incubated at 37° C. for 45 minutes. The desired antibiotic was then added at three sub-inhibitory concentrations, and the cells were incubated at 37° C. for 18 hours on a rotary shaking incubator at 100 rpm. The samples were then diluted ten-fold, drip streaked onto a TSA plate, and incubated for 18 hours at 37° C. The resulting cell colonies were counted, and the CFU/mL values were calculated.

For `Clc1ccc(/C=C/c2[nH]c3ccccc3c2/C=C/c2ccc(Cl)cc2)cc1` [Compound 1], the “potentiation of tetracycline (CFU/mL)” value (FIG. 18) is “tetracycline was more efficacious in cell killing in the presence of compound 1”. In addition, the “potentiation of doxycycline (CFU/mL)” value (FIG. 19) was “doxycycline was more efficacious in cell killing in the presence of compound 1”. Besides, the “potentiation of norfloxacin (CFU/mL)” value (FIG. 20) is “norfloxacin was more efficacious in cell killing in the presence of compound 1”. For the same molecule, under “FIG. 21”, the “potentiation of dicloxicillin (CFU/mL)” value is reported as “dicloxicillin was more efficacious in cell killing in the presence of compound 1”. For the same molecule, where the note is “FIG. 22”, the “potentiation of oxacillin (CFU/mL)” value is reported as “oxacillin was more efficacious in cell killing in the presence of compound 1”. For the same molecule, the “potentiation of penicillin G (CFU/mL)” value (FIG. 23) is “penicillin G was more efficacious in cell killing in the presence of compound 1”. For the same molecule, the “potentiation of tobramycin (CFU/mL)” value (FIG. 24) is given as “tobramycin was more efficacious in cell killing in the presence of compound 1”. Moreover, under “FIG. 25”, the “potentiation of vancomycin (CFU/mL)” value was “vancomycin was more efficacious in cell killing in the presence of compound 1”.
